Experimental data published in patent publication US6376497B1, “Antifungal azole derivatives having a fluorinated vinyl group and process for preparing same” (Korea Research Institute of Chemical Technology, priority 1999, dated 2002).

Assays:
Test in all cases: In vitro antifungal activity, microbroth dilution MIC
Assay type in all cases: cell-based
[1] = test system: Candida albicans A. 10231; conditions: C. albicans A. 10231, RPMI-1640, 35° C., 4 to 48 hours
How it was run: (§1)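 Broth microdilution adapted from NCCLS M27, in RPMI-1640 with 0.165 M MOPS, pH 7.0. Yeast or mould inoculum at 2×10^3 CFU/ml was mixed 1:1 with DMSO-derived compound solutions (200 to 0.10 μg/ml before mixing) and incubated at 35 °C for 4 to 48 h. MIC was the concentration showing no growth.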

Candida krusei K. 11655 = conditions: 4 to 48 hours; for Minimal inhibitory concentration(MIC), C. krusei K. 11655: RPMI-1640, 35° C., no growth observed
How it was run: as §1

[2] = test system: Candida albicans IFO. 1385; conditions: 4 to 48 hours; for Minimal inhibitory concentration(MIC), C. albicans IFO. 1385: RPMI-1640, 35° C., no growth observed
How it was run: as §1

[3] = test system: Trichophyton mentagrophytes A. 9129; conditions: 4 to 48 hours; for Minimal inhibitory concentration(MIC), T. mentagrophytes A. 9129: RPMI-1640, 35° C., no growth observed
How it was run: as §1

[4] = test system: Cryptococcus neoformans B. 42419; conditions: 4 to 48 hours; for Minimal inhibitory concentration(MIC), Cry. neoformans B. 42419: RPMI-1640, 35° C., no growth observed
How it was run: as §1

[5] = test system: Candida parapsitosis A. 7330; conditions: 4 to 48 hours; for Minimal inhibitory concentration(MIC), C. parapsitosis A. 7330: RPMI-1640, 35° C., no growth observed
How it was run: as §1

[6] = test system: Cryptococcus neoformans A. 34144; conditions: 4 to 48 hours; for Minimal inhibitory concentration(MIC), Cry. neoformans A. 34144: RPMI-1640, 35° C., no growth observed
How it was run: as §1

[7] = test system: Candida pseudotropicalis K. 11658; conditions: 4 to 48 hours; for Minimal inhibitory concentration(MIC), C. pseudotropicalis K. 11658: RPMI-1640, 35° C., no growth observed
How it was run: as §1

Candida albicans C1-2 = conditions: C. albicans C1-2, RPMI-1640, 35° C., 4 to 48 hours
How it was run: as §1

[8] = test system: Aspergillus furnigatus B. 19119; conditions: 4 to 48 hours; for Minimal inhibitory concentration(MIC), A furnigatus B. 19119: RPMI-1640, 35° C., no growth observed
How it was run: as §1

[9] = test system: Aspergillus niger A. 16404; conditions: 4 to 48 hours; for Minimal inhibitory concentration(MIC), A. niger A. 16404: RPMI-1640, 35° C., no growth observed
How it was run: as §1

[10] = test system: Trichophyton mentagrophytes B. 32663; conditions: 4 to 48 hours; for Minimal inhibitory concentration(MIC), T. mentagrophytes B. 32663: RPMI-1640, 35° C., no growth observed
How it was run: as §1

[11] = test system: Cryptococcus neoformans IFM. 40092; conditions: 4 to 48 hours; for Minimal inhibitory concentration(MIC), Cry. neoformans IFM. 40092: RPMI-1640, 35° C., no growth observed
How it was run: as §1

[12] = test system: Torulopsis glabrata B. 16205; conditions: 4 to 48 hours; for Minimal inhibitory concentration(MIC), T. glabrata B. 16205: RPMI-1640, 35° C., no growth observed
How it was run: as §1

[13] = test system: Candida tropicalis A. 13803; conditions: 4 to 48 hours; for Minimal inhibitory concentration(MIC), C. tropicalis A. 13803: RPMI-1640, 35° C., no growth observed
How it was run: as §1

Compound | Minimal inhibitory concentration (MIC) [1] [mg/L] | Minimal inhibitory concentration (MIC) (Candida albicans C1-2) [mg/L] | Minimal inhibitory concentration(MIC), C. krusei K. 11655 (Candida krusei K. 11655) [mg/L] | Minimal inhibitory concentration(MIC), C. albicans IFO. 1385 [2] [mg/L] | Minimal inhibitory concentration(MIC), T. mentagrophytes A. 9129 [3] [mg/L] | Minimal inhibitory concentration(MIC), Cry. neoformans B. 42419 [4] [mg/L] | Minimal inhibitory concentration(MIC), C. parapsitosis A. 7330 [5] [mg/L] | Minimal inhibitory concentration(MIC), Cry. neoformans A. 34144 [6] [mg/L] | Minimal inhibitory concentration(MIC), C. pseudotropicalis K. 11658 [7] [mg/L] | Minimal inhibitory concentration(MIC), A furnigatus B. 19119 [8] [mg/L] | Minimal inhibitory concentration(MIC), A. niger A. 16404 [9] [mg/L] | Minimal inhibitory concentration(MIC), T. mentagrophytes B. 32663 [10] [mg/L] | Minimal inhibitory concentration(MIC), Cry. neoformans IFM. 40092 [11] [mg/L] | Minimal inhibitory concentration(MIC), T. glabrata B. 16205 [12] [mg/L] | Minimal inhibitory concentration(MIC), C. tropicalis A. 13803 [13] [mg/L] | also measured
Cc1cccc(C=C(F)OCC2COC(Cn3cncn3)(c3ccc(Cl)cc3Cl)O2)c1 (mixture of isomers) [Ex. 70] | 25.0 | 25.0 |  |  |  |  |  |  |  |  |  |  |  |  |  | Minimal inhibitory concentration (MIC) (Candida krusei K. 11655; C. krusei K. 11655, RPMI-1640, 35° C.): 100 mg/L; Minimal inhibitory concentration (MIC) ([2]; C. albicans IFO. 1385, RPMI-1640, 35° C.): 6.25 mg/L; Minimal inhibitory concentration (MIC) ([3]; T. mentagrophytes A. 9129, RPMI-1640, 35° C.): 3.13 mg/L; Minimal inhibitory concentration (MIC) ([4]; Cry. neoformans B. 42419, RPMI-1640, 35° C.): 3.13 mg/L; Minimal inhibitory concentration (MIC) ([5]; C. parapsitosis A. 7330, RPMI-1640, 35° C.): >100 mg/L; Minimal inhibitory concentration (MIC) ([6]; Cry. neoformans A. 34144, RPMI-1640, 35° C.): 3.13 mg/L; Minimal inhibitory concentration (MIC) ([7]; C. pseudotropicalis K. 11658, RPMI-1640, 35° C.): 50.0 mg/L; Minimal inhibitory concentration (MIC) ([8]; A furnigatus B. 19119, RPMI-1640, 35° C.): 50.0 mg/L; Minimal inhibitory concentration (MIC) ([9]; A. niger A. 16404, RPMI-1640, 35° C.): 100 mg/L; Minimal inhibitory concentration (MIC) ([10]; T. mentagrophytes B. 32663, RPMI-1640, 35° C.): 3.13 mg/L; Minimal inhibitory concentration (MIC) ([11]; Cry. neoformans IFM. 40092, RPMI-1640, 35° C.): 0.78 mg/L; Minimal inhibitory concentration (MIC) ([12]; T. glabrata B. 16205, RPMI-1640, 35° C.): 25.0 mg/L; Minimal inhibitory concentration (MIC) ([13]; C. tropicalis A. 13803, RPMI-1640, 35° C.): 100 mg/L
Cc1ccc(C=C(F)OCC2COC(Cn3cncn3)(c3ccc(Cl)cc3Cl)O2)cc1 (mixture of isomers) [Ex. 71] | 50.0 | 50.0 | 100 | 6.25 | 6.25 | 1.56 | 100 | 1.56 | 25.0 | 100 | 100 | 6.25 | 0.20 | 25.0 | 100 | 
CCc1ccc(C=C(F)OCC2COC(Cn3cncn3)(c3ccc(Cl)cc3Cl)O2)cc1 (mixture of isomers) [Ex. 72] | 250 | 25.0 | 25.0 | 1.56 | 12.5 | 3.13 | 100 | 3.13 | 12.5 | >100 | >100 | 12.5 | 1.56 | 25.0 | 25.0 | 
Cc1cc(C)cc(C=C(F)OCC2COC(Cn3cncn3)(c3ccc(Cl)cc3Cl)O2)c1 (mixture of isomers) [Ex. 73] | 50.0 | 50.0 | 100 | 12.5 | 25.0 | 6.25 | >100 | 12.5 | 50.0 | >100 | >100 | 25.0 | 1.56 | 50.0 | >100 | 
COc1ccc(C=C(F)OCC2COC(Cn3cncn3)(c3ccc(Cl)cc3Cl)O2)cc1 (mixture of isomers) [Ex. 74] | 100 | 100 | 100 | 12.5 | 12.5 | 3.13 | >100 | 6.25 | 25.0 | >100 | >100 | 12.5 | 0.78 | 50.0 | >100 | 
FC(=Cc1ccc2c(c1)OCO2)OCC1COC(Cn2cncn2)(c2ccc(Cl)cc2Cl)O1 (mixture of isomers) [Ex. 75] | 100 | 100 | 100 | 25.0 | 3.13 | 1.56 | >100 | 1.56 | 25.0 | 100 | >100 | 3.13 | 0.39 | 50.0 | 100 | 
FC(=Cc1ccc(Cl)cc1)OCC1COC(Cn2cncn2)(c2ccc(Cl)cc2Cl)O1 (mixture of isomers) [Ex. 76] | 6.25 | 6.25 | >100 | 6.25 | 3.13 | 3.13 | >100 | 3.13 | 100 | 25.0 | 12.5 | 3.13 | 0.78 | 25.0 | 25.0 | 
FC(=Cc1ccc(F)cc1)OCC1COC(Cn2cncn2)(c2ccc(Cl)cc2Cl)O1 (mixture of isomers) [Ex. 77] | 100 | 100 | 12.5 | 25.0 | 6.25 | 1.56 | 12.5 | 3.13 | 6.25 | 100 | >100 | 6.25 | 0.78 | 50.0 | 100 | 
